From patent publication US4572916A, “Tablets” (priority 1979, dated 1986)
In brackets after ≈: the same amount, converted by molar mass. Entries after “also recorded” stand apart in the source; their conditions may differ.

Assays:
[1] = Flowability: flow of 100 g tablet mix through a 3/8 inch orifice funnel; format: physicochemical; settings: for Time for 100 g of the tablet mix to flow through the 3/8 inch orifice funnel: no vibration, "No flow" = unable to flow completely without agitation
[2] = Tablet formation, integrity and fines during tabletting and handling; format: physicochemical
Text: 50 g isomaltulose, 4 g gum arabic, 1 g magnesium stearate and 13 g saccharin were dry mixed, giving a flowable tabletting powder. Tablets were formed by direct compression of the powder. […]

[3] = Tablets made using a 1/4 inch flat face punch; format: physicochemical; settings: Example 6, aspirin tablets; for Tablet making results: 1/4 inch flat face punch
Experimental: (a) The aspirin was mixed with the carrier under test, taking care to avoid moisture pick-up. The flavour was added to the starch with thorough mixing. The magnesium stearate was then added to the starch and this combination blended, with agitation, with the aspirin-carrier mix. (c) Tablets were made using a 1/4 inch flat face punch with the following results: […]

[4] = Solubility in water of isomaltulose; format: physicochemical
[5] = Viscosity of isomaltulose solution in water; format: physicochemical; settings: H2O
[6] = Acid hydrolysis of isomaltulose; format: physicochemical; settings: 90 h at 58° C. in 2M HCl
[7] = Reducing power of isomaltulose relative to glucose; format: physicochemical
[8] = Equilibrium relative humidity / water content of isomaltulose; format: physicochemical; settings: 80% and 22° C.
[9] = Sweetness and taste of isomaltulose
Tablet weight = format: physicochemical; settings: Example 6, aspirin tablets
Text: (d) The tablet weights were:

[10] = Tablet hardness: % weight loss on vibration in a container for 1 hour; format: physicochemical
Experimental: (e) Tablet hardness was then assessed. For an objective test, the tablets were vibrated in a container for 1 hour.

[11] = Tablets made using a 1/4 inch flat face punch; format: physicochemical; settings: Example 7, ascorbic acid tablets, in words
[12] = test system: enzyme complex in the human intestine; settings: literature clinical / in vitro studies (Holzen); cited from earlier work

SMILES: OC[C@H]1O[C@@](CO)(O[C@H]2O[C@H](CO)[C@@H](O)[C@H](O)[C@H]2O)[C@@H](O)[C@@H]1O [Sucrose]
- Flowability, 100 g through 3/8" orifice, no agitation ([1]; Example 7, ascorbic acid mix): Agitation required

SMILES: OC[C@H]1O[C@@H](O[C@H]2[C@H](O)[C@@H](O)C(O)O[C@@H]2CO)[C@H](O)[C@@H](O)[C@H]1O (stereo partly shown) [Lactose, reference compound]
- tablet quality / tablet formation ([2]; Example 4(i), direct compression with gum arabic, saccharin tablets): not possible to produce coherent tablets
- tablet formation ([2]; Example 4(ii), direct compression without binder, saccharin tablets): Tablets could not be made
- Time for 100 g of the tablet mix to flow through the 3/8 inch orifice funnel ([1]; Example 6, aspirin mix): No flow
- Flowability, 100 g through 3/8" orifice, no agitation ([1]; Example 7, ascorbic acid mix): Agitation required
- Tablet making results [3]: Tablet machine prone to sticking

SMILES: OC[C@H]1OC(O)[C@H](O)[C@@H](O)[C@@H]1O (stereo partly shown) [Anhydrous dextrose, reference compound]
- Time for 100 g of the tablet mix to flow through the 3/8 inch orifice funnel ([1]; Example 6, aspirin mix): No flow
- Tablet making results [3]: As (iv)

SMILES: OC[C@H]1O[C@H](OC[C@H]2OC(O)(CO)[C@@H](O)[C@@H]2O)[C@H](O)[C@@H](O)[C@@H]1O (stereo partly drawn) [Isomaltulose, 6-O-(αglucopyranosyl)-D-fructofuranose]
- solubility in water compared with lactose ([4]; in words, versus lactose): better solubility in water than lactose
- solubility ([4]; water, 30° C., H2O, read-out: solubility at 30° C., H2 O): 460 mg/mL (≈ 1340 mM)
- viscosity at 25° C., 50% w/v, H2 O [5]: 6 cp
- degraded at 90 h [6]: 40%
- reducing power [7]: 58-62 % of that of glucose
- water content at 80% equilibrium relative humidity and 22 °C [8]: 25-32 % water
- taste ([9]; in words): pleasant, not very sweet, reasonably bland taste
- sweetness (relative to sucrose sweetness at 7% w/v in water) ([9]; relative to sucrose, 7% w/v in water): 0.37
- binding power when formed into tablets ([2]; in words): unusually good binding power
- fines during handling ([2]; tablets with isomaltulose as diluent versus comparable lactose tablets): often show less tendency to generate fines during handling
- flowability, comparison of carriers ([1]; Example 6, aspirin mix, in words): comparable with the specially prepared products Dipac and Emdex, and better than the lactose, icing sugar or anydrous dextrose
- Time for 100 g of the tablet mix to flow through the 3/8 inch orifice funnel ([1]; Example 6, aspirin mix): 38 s
- Flowability, 100 g through 3/8" orifice, no agitation ([1]; Example 7, ascorbic acid mix): 43 s
- flowability ([1]; Example 7, ascorbic acid mix, in words): performed well on flowability
- Tablet making results [3]: Tablets successfully made; also recorded: Released from die easily; also recorded: Good shiny appearance; also recorded: Good integrity
- tablet making, comparison of carriers ([3]; in words): comparable with the Dipac and Emdex, and superior to the other carriers
- tablet weights (Tablet weight): 151 mg
- % weight loss on vibration (tablet hardness) ([10]; Example 6, aspirin tablets, vibrated 1 hour): 3.2%
- Weight loss on vibration for 1 hour ([10]; Example 7, ascorbic acid tablets): 1.8%
- tablet hardness ([10]; Example 7, ascorbic acid tablets, in words): not so well on tablet hardness; also recorded: not as hard as with the specially formulated carriers
- dental plaque formation (Streptococcus mutans): little if any dental plaque is formed
- metabolism by Streptococcus mutans (Streptococcus mutans; preliminary studies): metabolized by Streptococcus mutans
- tablet quality [11]: shiny, hard and had good appearance; also recorded: clearly superior to the dextrose, lactose and sucrose
- fate of the constituent monosaccharides (fructose and glucose) [12]: adsorbed, metabolized and otherwise behave as fructose and glucose derived from sucrose
- hydrolysis by an enzyme complex in the human intestine [12]: readily hydrolyzed

SMILES: O=C[C@H](O)[C@@H](O)[C@H](O)[C@H](O)CO [Dextrose]
- Flowability, 100 g through 3/8" orifice, no agitation ([1]; Example 7, ascorbic acid mix): Agitation required
